This is an account of results in ChEMBL document CHEMBL1143087, “Indirect oxidation of the antitumor agent procarbazine by tyrosinase--possible application in designing anti-melanoma prodrugs” (Bioorg Med Chem Lett, 2008).

Calls of active or inactive are those of the source. No cut-off for these calls is given here.

In the test the target is T1, Tyrosinase (Agaricus bisporus) (UniProt O42713).
T1 sequence (whole entry): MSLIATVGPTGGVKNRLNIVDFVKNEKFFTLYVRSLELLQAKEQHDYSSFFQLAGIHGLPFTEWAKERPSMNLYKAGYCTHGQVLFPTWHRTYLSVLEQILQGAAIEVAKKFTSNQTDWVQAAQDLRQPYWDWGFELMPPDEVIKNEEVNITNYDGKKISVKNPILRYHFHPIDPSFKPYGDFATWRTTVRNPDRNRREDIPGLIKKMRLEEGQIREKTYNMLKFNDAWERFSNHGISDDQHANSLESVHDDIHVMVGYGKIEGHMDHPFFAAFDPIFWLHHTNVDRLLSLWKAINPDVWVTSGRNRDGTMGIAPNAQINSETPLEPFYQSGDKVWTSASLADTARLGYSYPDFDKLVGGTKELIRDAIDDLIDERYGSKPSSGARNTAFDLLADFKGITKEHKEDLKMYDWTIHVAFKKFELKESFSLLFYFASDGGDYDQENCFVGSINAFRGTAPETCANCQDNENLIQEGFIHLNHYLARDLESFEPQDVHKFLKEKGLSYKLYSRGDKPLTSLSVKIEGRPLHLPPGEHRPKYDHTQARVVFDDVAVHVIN
The experiment in a line: Increase in mushroom tyrosinase catalysed oxidation of 4-tert-butyl catechol assessed as oxygen consumption after 30 mins.

As for `CNNCc1ccc(C(=O)NC(C)C)cc1`, the result was Active.
